Measured values: ChEMBL document CHEMBL1201862, “PubChem BioAssay data set” (2004)
Where “and” joins values, the source holds several entries; their conditions need not be identical. Equal values may be shown once.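 Following 48 hours of exposure in 96-well plates, responses at five concentrations were used to interpolate endpoints linearly. GI50 marks 50% less growth.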 Calls of active or inactive are those of the source. No stated cut-off is given here; in the data, active = GI50 up to about 1.1 µM and inactive = higher.

How the values were obtained:
Experiment in all cases: NCI-60 cell line screen, 48 h
[1] = system: A549
[2] = system: HOP-92
[3] = system: SK-MEL-5
[4] = system: ACHN
[5] = system: HOP-62
[6] = system: UACC-257
[7] = system: MDA-MB-435
[8] = system: RPMI-8226
[9] = system: NCI-H460
[10] = system: HL-60
[11] = system: 786-0
[12] = system: DU-145
[13] = system: OVCAR-4
[14] = system: IGROV-1
[15] = system: SF-268
[16] = system: SNB-75
[17] = system: CCRF-CEM
[18] = system: EKVX
[19] = system: TK-10
[20] = system: SF-295
[21] = system: OVCAR-3
[22] = system: NCI/ADR-RES
[23] = system: SR
[24] = system: NCI-H23
[25] = system: A498
[26] = system: PC-3
[27] = system: MDA-N
[28] = system: SNB-19
[29] = system: UACC-62
[30] = system: SK-MEL-28
[31] = system: U-251
[32] = system: NCI-H226
[33] = system: MOLT-4
[34] = system: MDA-MB-231
[35] = system: Hs-578T
[36] = system: K562
[37] = system: NCI-H522
[38] = system: COLO 205
[39] = system: CAKI-1
[40] = system: OVCAR-5
[41] = system: RXF 393
[42] = system: HCT-15
[43] = system: OVCAR-8
[44] = system: SK-MEL-2
[45] = system: SW-620
[46] = system: SF-539
[47] = system: M14
[48] = system: MCF7
[49] = system: Malme-3M
[50] = system: SK-OV-3
[51] = system: KM12
[52] = system: HCT-116
[53] = system: SN12C
[54] = system: HT-29
[55] = system: LOX IMVI
[56] = system: HCC 2998

Compound: COC(=S)OC1CC(n2cnc3c(=O)[nH]cnc32)OC1CO[Si](C)(C)C(C)(C)C (centres undefined)
- GI50 [1]: > 100 µM (inactive)
- GI50 [2]: > 100 µM (inactive)
- GI50 [3]: > 100 µM (inactive)
- GI50 [4]: > 100 µM (inactive)
- GI50 [5]: > 100 µM (inactive)
- GI50 [6]: > 100 µM (inactive)
- GI50 [7]: > 100 µM (inactive)
- GI50 [8]: > 100 µM (inactive)
- GI50 [9]: > 100 µM (inactive)
- GI50 [10]: > 100 µM (inactive)
- GI50 [11]: > 100 µM (inactive)
- GI50 [12]: > 100 µM (inactive)
- GI50 [13]: > 100 µM (inactive)
- GI50 [14]: > 100 µM (inactive)
- GI50 [15]: > 100 µM (inactive)
- GI50 [16]: > 100 µM (inactive)
- GI50 [17]: > 100 µM (inactive)
- GI50 [18]: > 100 µM (inactive)
- GI50 [19]: > 100 µM (inactive)
- GI50 [20]: > 100 µM (inactive)
- GI50 [21]: > 100 µM (inactive)
- GI50 [22]: > 100 µM (inactive)
- GI50 [23]: > 100 µM (inactive)
- GI50 [24]: > 100 µM (inactive)
- GI50 [25]: > 100 µM (inactive)
- GI50 [26]: > 100 µM (inactive)
- GI50 [27]: > 100 µM (inactive)
- GI50 [28]: > 100 µM (inactive)
- GI50 [29]: > 100 µM (inactive)
- GI50 [30]: > 100 µM (inactive)
- GI50 [31]: > 100 µM (inactive)
- GI50 [32]: > 100 µM (inactive)
- GI50 [33]: > 100 µM (inactive)
- GI50 [34]: > 100 µM (inactive)
- GI50 [35]: > 100 µM (inactive)
- GI50 [36]: > 100 µM (inactive)
- GI50 [37]: > 100 µM (inactive)
- GI50 [38]: > 100 µM (inactive)
- GI50 [39]: > 100 µM (inactive)
- GI50 [40]: > 100 µM (inactive)
- GI50 [41]: > 100 µM (inactive)
- GI50 [42]: > 100 µM
- GI50 [43]: > 100 µM (inactive)
- GI50 [44]: > 100 µM (inactive)
- GI50 [45]: > 100 µM (inactive)
- GI50 [46]: > 100 µM (inactive)
- GI50 [47]: > 100 µM (inactive)
- GI50 [48]: > 100 µM (inactive)
- GI50 [49]: > 100 µM (inactive)
- GI50 [50]: > 100 µM (inactive)
- GI50 [51]: > 100 µM (inactive)
- GI50 [52]: > 100 µM (inactive)
- GI50 [53]: > 100 µM (inactive)
- GI50 [54]: > 100 µM (inactive)
- GI50 [55]: > 100 µM (inactive)

Compound: CC(Nc1n[nH]c(=O)c2c1nnn2Cc1ccccc1)c1ccccc1 (centres undefined)
- GI50 [1]: 23.8 µM (inactive) and 36 µM (inactive)
- GI50 [2]: 22.8 µM (inactive) and 23.9 µM (inactive)
- GI50 [3]: 18.8 µM (inactive) and 21.5 µM (inactive)
- GI50 [4]: 52.7 µM (inactive)
- GI50 [6]: 50.6 µM (inactive) and 71 µM (inactive)
- GI50 [7]: 17.3 µM (inactive) and 22.3 µM (inactive)
- GI50 [8]: 72.8 µM (inactive)
- GI50 [11]: 16.5 µM (inactive)
- GI50 [12]: > 100 µM (inactive)
- GI50 [17]: > 100 µM (inactive)
- GI50 [18]: > 100 µM (inactive)
- GI50 [20]: 34.4 µM (inactive) and 17.8 µM (inactive)
- GI50 [21]: > 100 µM (inactive) and 53.5 µM (inactive)
- GI50 [22]: > 100 µM (inactive) and 57.8 µM (inactive)
- GI50 [30]: > 100 µM (inactive) and 55.1 µM (inactive)
- GI50 [31]: 26.1 µM (inactive) and 37.1 µM (inactive)
- GI50 [33]: 56.9 µM (inactive) and 37.2 µM (inactive)
- GI50 [38]: 77.4 µM (inactive) and 96.2 µM (inactive)
- GI50 [39]: 18.6 µM (inactive) and 34.1 µM (inactive)
- GI50 [40]: > 100 µM (inactive)
- GI50 [56]: > 100 µM (inactive)
- GI50 [42]: > 100 µM
- GI50 [47]: > 100 µM (inactive)
- GI50 [48]: 31.9 µM (inactive) and 29.1 µM (inactive)
- GI50 [51]: > 100 µM (inactive)
- GI50 [52]: 24.3 µM (inactive) and 27.5 µM (inactive)
- GI50 [53]: > 100 µM (inactive)
- GI50 [54]: 12.2 µM (inactive)

Compound: CC(C)(/N=N/C(C)(C)C1=NCCN1)C1=NCCN1
- GI50 [1]: > 100 µM (inactive)
- GI50 [2]: > 100 µM (inactive)
- GI50 [19]: > 100 µM (inactive)
- GI50 [24]: > 100 µM (inactive)
- GI50 [39]: > 100 µM (inactive)
- GI50 [50]: > 100 µM (inactive)
